{"source": "paper PMC11411520", "about": "(ACS Omega, 2024)", "tested_on": "insulin", "test": "electrochemical impedance spectroscopy", "format": "binding", "conditions": "two experimental cases and one scrambled sequence; different insulin concentrations; PBS", "note": "“Also recorded” adds a separate entry of the source. No end group written: not given here. *: point of attachment. Biotin = O=C1N[C@H]2[C@H](CS[C@H]2CCCCC(=O)*)N1", "data": [{"substance": "EACVESGGGENLYFQK(Biotin) [scrambled sequence]", "values": [{"measurement": "raw phase change (Zphz) across different frequencies", "result": "The largest change across different frequencies is observed in the scrambled sequence negative control compared to the other two experimental cases; also recorded: The largest change across different frequencies was observed in (C)"}]}]}
